Patent publication US12084462B2, “Spiro bicyclic inhibitors of menin-MLL interaction” (Janssen Pharmaceutica NV, priority 2016, dated 2024)
Where “and” joins values, the source holds several entries; their conditions need not be identical. Equal values may be shown once. Read-outs that look alike come from different tables or passages of the source.

What was measured:
MOLM14 = assay: Proliferation assay (spheroid assay) MOLM14; type: cell-based, human
Protocol: (§1) The anti-proliferative effect of menin/MLL protein/protein interaction inhibitor test compounds was assessed in human leukemia cell lines. The cell lines MV-4-11 and MOLM14 harbor MLL translocations and express the MLL fusion proteins MLL-AF4 and MLL-AF9, respectively, as well as the wildtype protein from the second allele. […] K562 and KG1 were used as a control cell lines containing two MLL wildtype alleles in order to exclude compounds that display general cytotoxic effects.
(§2) MV-4-11 and MOLM14 were cultured in RPMI-1640 (Sigma Aldrich) supplemented with 10% fetal bovine serum (HyClone), 2 mM L-glutamine (Sigma Aldrich) and 50 μg/ml gentamycin (Gibco). K562 were propagated in RPMI-1640 (Sigma Aldrich) supplemented with 20% fetal bovine serum (HyClone), 2 mM L-glutamine (Sigma Aldrich) and 50 μg/ml gentamycin (Gibco). KG1 were cultured in Iscove's MDM (Gibco) supplemented with 20% fetal bovine serum (HyClone), 2 mM L-glutamine (Sigma Aldrich) and 50 μg/ml gentamycin (Gibco).
(§3) In order to assess the anti-proliferative effects, 1,500 MV-4-11, 300 MOLM14, 750 K562 or 1,300 KG1 cells were seeded in 200 μl media per well in 96-well round bottom, ultra-low attachment plates (Costar, catalogue number 7007). Cell seeding numbers were chosen based on growth curves to ensure linear growth throughout the experiment. Test compounds were added at different concentrations and the DMSO content was normalized to 0.3%. Cells were incubated for 8 d at 37° C. and 5% CO2. Spheroid like growth was monitored in real-time by live-cell imaging (IncuCyteZOOM, Essenbio, 4× objective) acquiring one image every four hours for 8 d. Confluence (%) as a measure of spheroid size was determined using an integrated analysis tool.
(§4) In order to determine the cumulative effect of the test compounds over time, the area under the curve (AUC) in a plot of confluence against time was calculated. Confluence at the beginning of the experiment (t=0) was used as baseline for the AUC calculation.
(§5) Absolute IC50 values were calculated according to the following procedure: % Control=(AUC sample/AUC control)*100 AUC control=mean AUC of control values (cells without compound/DMSO as vehicle control)
(§6) A non-linear curve fit was applied using the least squares (ordinary) fit method to the plot of % control versus compound concentration. Based on this, the absolute IC50 value (half maximal inhibitory concentration of the test compound causing an anti-proliferative effect of 50% relative to the vehicle control) was calculated.

K562 = assay: Proliferation assay (spheroid assay) K562, control cell line; type: cell-based; settings: Homo sapiens
Protocol: as §1, §2, §3, §4, §5, §6

MV-4-11 = assay: Proliferation assay (spheroid assay) MV-4-11; type: cell-based, human
Protocol: as §1, §2, §3, §4, §5, §6

menin = target: T1, menin (Homo sapiens, UniProt O00255, T541A); assay: Menin/MLL fluorescence polarization (FP) assay; type: binding
T1 sequence (O00255 with tags, fused parts or gaps T541A): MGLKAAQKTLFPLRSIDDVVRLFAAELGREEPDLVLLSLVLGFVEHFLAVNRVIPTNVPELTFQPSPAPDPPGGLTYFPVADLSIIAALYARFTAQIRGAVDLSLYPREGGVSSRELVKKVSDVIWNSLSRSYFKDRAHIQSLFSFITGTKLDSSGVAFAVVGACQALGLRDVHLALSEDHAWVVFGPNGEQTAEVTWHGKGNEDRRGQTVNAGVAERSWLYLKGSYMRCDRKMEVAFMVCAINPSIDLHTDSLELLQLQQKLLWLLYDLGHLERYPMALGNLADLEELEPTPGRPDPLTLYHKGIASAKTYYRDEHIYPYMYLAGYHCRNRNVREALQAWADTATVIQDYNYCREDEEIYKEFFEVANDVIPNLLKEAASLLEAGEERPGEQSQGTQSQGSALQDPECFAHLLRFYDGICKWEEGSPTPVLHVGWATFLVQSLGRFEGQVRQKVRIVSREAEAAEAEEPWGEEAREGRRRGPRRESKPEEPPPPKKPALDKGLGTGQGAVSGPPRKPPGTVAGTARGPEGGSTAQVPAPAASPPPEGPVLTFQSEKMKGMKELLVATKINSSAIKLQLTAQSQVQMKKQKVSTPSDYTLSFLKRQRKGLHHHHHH
Protocol: 1) Menin/MLL Fluorescence Polarization Assay
To a non-surface binding, black 384-well microtiter plate was added 50 nL 160× test compound in DMSO and 4 μL 2× menin in assay buffer (40 mM Tris·HCl, pH 7.5, 50 mM NaCl, 1 mM DTT and 0.001% Tween 20). After incubation of test compound and menin for 10 min at ambient temperature, 4 μL 2×FITC-MBM1 peptide (FITC-β-alanine-SARWRFPARPGT-NH2 (SEQ ID NO: 2)) in assay buffer was added, the microtiter plate centrifuged at 1000 rpm for 1 min and the assay mixtures incubated for 15 min at ambient temperature. The relative amount of menin·FITC-MBM1 complex present in an assay mixture is determined by measuring the fluorescence polarization (FP) of the FITC label with a BMG Pherastar plate reader (ex. 485 nm/em. 520 nm) at ambient temperature. The final concentrations of reagents in the binding assay are 100 nM menin, 5 nM FITC-MBM1 peptide and 0.625% DMSO in assay buffer. Dose-response titrations of test compounds are conducted using an 11 point, three-fold serial dilution scheme, starting at 31 μM.
Compound potencies were determined by first calculating % inhibition at each compound concentration according to equation 1: % inhibition=((HC−LC)−(FP^compound−LC))/(HC−LC))*100 (Eqn 1)
Where LC and HC are the FP values of the assay in the presence or absence of a saturating concentration of a compound that competes with FITC-MBM1 for binding to menin, and FP^compound is the measured FP value in the presence of the test compound. HC and LC FP values represent an average of at least 16 replicates per plate. […] 2) Proliferation Assay

[1] = Homo sapiens, MOLM-14, MOLM14, averaged values, read-out: Spheroid assay MOLM14 (IC50 (μM))
[2] = K562 control cell line, averaged values, read-out: Spheroid assay K562 (IC50 (μM))
[3] = Homo sapiens, MV4-11, MV-4-11, averaged values, read-out: Spheroid assay MV-4-11 (IC50 (μM))
[4] = averaged values over all measurements, read-out: Menin FP assay (IC50 (μM))
[5] = 100 nM menin, 5 nM FITC-MBM1 peptide, individual measurements (not averaged), read-out: (1) Menin FP assay (IC50 (μM))
[6] = MOLM14 (MLL-AF9), 8 d, absolute IC50 from AUC of confluence, individual measurements (not averaged), read-out: (2) Spheroid assay MOLM14 (IC50 (μM))
[7] = 192 h, K562 (MLL wildtype control), 8 d, absolute IC50 from AUC of confluence, individual measurements (not averaged), read-out: (2) Spheroid assay K562 (IC50 (μM))
[8] = MV-4-11 (MLL-AF4), 8 d, absolute IC50 from AUC of confluence, individual measurements (not averaged), read-out: (2) Spheroid assay MV-4-11 (IC50 (μM))
[9] = Homo sapiens, MOLM-14, 192 h, MOLM14 (MLL-AF9), 8 d, absolute IC50 from AUC of confluence, individual measurements (not averaged), read-out: (2) Spheroid assay MOLM14 (IC50 (μM))

SMILES | IC50 (MOLM14; [1]) [µM] | IC50 (K562; [2]) [µM] | IC50 (MV-4-11; [3]) [µM] | IC50 (menin; [4]) [µM] | IC50 (menin; [5]) [µM] | IC50 (MOLM14; [6]) | IC50 (K562; [7]) [µM] | IC50 (MV-4-11; [8]) | IC50 (MOLM14; [9]) [µM]
C[C@H]1CN[C@H](C(=O)N2CC3(C2)CN(c2ncnc4sc(CC(F)(F)F)cc24)C3)C1 [Compound 105] | 3.4 | > 15 | 0.67 |  |  |  |  |  | 
FC(F)(F)Cc1cc2c(N3CCC[C@@]4(CCN(Cc5ccccc5)C4)C3)ncnc2s1 (single isomer, unassigned) [Compound 21b] | 4.6 | > 15 | 4.2 | 0.13 |  |  |  |  | 
FC(F)(F)Cc1cc2c(N3CCC4(CN(Cc5ccnc(Cl)n5)C4)C3)ncnc2s1 [Compound 15] | > 15 | > 15 | 14 | 0.57 |  |  |  |  | 
FC(F)(F)Cc1cc2c(N3CCC[C@]4(CCN(Cc5ccccc5)C4)C3)ncnc2s1 (single isomer, unassigned) [Compound 21a] | 12.1 | > 15 | 6.9 | 0.49 |  |  |  |  | 
FC(F)(F)Cc1cc2c(N3CCC4(CN(CC5CC6(CCC6)C5)C4)C3)ncnc2s1 [Compound 22] | 2 | > 15 | 0.55 | 0.069 |  |  |  |  | 
FC(F)(F)Cc1cc2c(N3CCC4(CN(Cc5ccc6nccn6c5)C4)C3)ncnc2s1 [Compound 6] | 10.1 | > 15 | 2.4 | 0.24 |  |  |  |  | 
O=C([C@@H]1CC2(CC2)CN1)N1CC2(CCN(c3ncnc4sc(CC(F)(F)F)cc34)C2)C1 [Compound 86] | 11.3 | > 15 | 2.6 | 0.092 |  |  |  |  | 
CC(C)CN1CC2(CCN(c3ncnc4sc(CC(F)(F)F)cc34)C2)C1 [Compound 13] | 4.2 | > 15 | 0.73 | 0.042 |  |  |  |  | 
O=C([C@@H]1CC2(CC2)CN1)N1CC2(C1)CN(c1ncnc3sc(CC(F)(F)F)cc13)C2 [Compound 87] |  |  |  |  | 0.048 | 8 µM and 2.8 µM and 4.6 µM | > 15 | 4.1 µM and 0.63 µM and 0.58 µM and 0.68 µM and 0.52 µM | 
FC(F)(F)Cc1cc2c(N3CC4(CCN(Cc5ccccc5)C4)C3)ncnc2s1 [Compound 16] |  |  |  |  | 0.134 | 8.7 µM | > 15 | 4.7 µM and > 15 µM | 9.3
FC(F)(F)Cc1cc2c(N3CCC4(CN(Cc5ccccc5)C4)C3)ncnc2s1 [Compound 1] | 4.6 | > 15 | 3.7 | 0.056 |  |  |  |  | 
FC(F)(F)CCN1CC2(CCN(c3ncnc4sc(CC(F)(F)F)cc34)C2)C1 [Compound 2] | 14.6 | > 15 | 4.9 | 0.39 |  |  |  |  | 
FC(F)(F)Cc1cc2c(N3CCC4(CN(Cc5cnccn5)C4)C3)ncnc2s1 [Compound 12] | > 15 | > 15 | > 15 | 0.63 |  |  |  |  | 
FC(F)(F)Cc1cc2c(N3CCC4(CN(Cc5cn[nH]c5)C4)C3)ncnc2s1 [Compound 29] |  |  |  |  | 0.346 | > 15 µM |  | 1.8 µM and > 15 µM and 9.9 µM | 10.8
OCCn1cccc1CN1CC2(CCN(c3ncnc4sc(CC(F)(F)F)cc34)C2)C1 [Compound 24] | > 15 |  | 9.1 | 0.49 |  |  |  |  | 
O=C([C@@H]1CC(F)(F)CN1)N1CC2(C1)CN(c1ncnc3sc(CC(F)(F)F)cc13)C2 [Compound 90] | > 15 |  | 11.1 | 0.11 |  |  |  |  | 
Cn1cc2c(n1)CCCC2N1CC2(CCN(c3ncnc4sc(CC(F)(F)F)cc34)C2)C1 (centres unmarked) [Compound 133] | > 15 |  | 2.1 | 0.12 |  |  |  |  | 
C[C@@H](c1cnn(C)c1)N1CC2(CCN(c3ncnc4sc(CC(F)(F)F)cc34)C2)C1 [Compound 199] | > 15 |  | 12.9 | 0.41 |  |  |  |  | 
CC(c1cnn(C)c1)N1CC2(CCN(c3ncnc4sc(CC(F)(F)F)cc34)C2)C1 (centres unmarked) [Compound 197] | > 15 |  | 7.3 | 0.3 |  |  |  |  | 
CC(C)NCCNC(=O)C(c1ccccc1)N1CC2(CCN(c3ncnc4sc(CC(F)(F)F)cc34)C2)C1 (centres unmarked) [Compound 74] | 6.1 |  | 2 | 0.12 |  |  |  |  | 
C[C@H](c1cnn(C)c1)N1CC2(CCN(c3ncnc4sc(CC(F)(F)F)cc34)C2)C1 [Compound 198] | 12.4 |  | 5.1 | 0.14 |  |  |  |  | 
FC(F)(F)Cc1cc2c(N3CCC4(CN(Cc5ccc[nH]5)C4)C3)ncnc2s1 [Compound 25] | 7.2 |  | 3.8 | 0.31 |  |  |  |  | 
